In patent US20050239735A1, “Enhancement of immune responses” (3M Innovative Properties Company, priority 2003, published 2005):

What was measured:
[1] = tested on: adherent cells from human PBMC; assay: Type I IFN production by adherent cells from human PBMC, virus neutralization bioassay of supernatants; format: cell-based
Method: (§1) The amount of Type I interferon (IFN) and tumor necrosis factor-α (TNF-α) produced by the cells in response to the treatment is also recorded in Table I.
(§2) Briefly, adherent cells from human PBMC were treated with 1-100 U/mL recombinant IFN-α (Lee BioMolecular, San Diego, Calif.) for 24 hours, washed, and then treated with IRM (a concentrated solution of IRM in cell culture medium was added to reach the final concentration indicated in Table I) for an additional 24 hours. A separate group of control cells were treated only with IRM for 24 hours. Cell-free supernatants were then isolated from all of the cultures and analyzed for Type I IFN or TNF-α.
(§3) Type I IFN production was assayed using a virus neutralization bioassay using A549 human lung carcinoma cells challenged with encephalomyocarditis. The details of the bioassay method have been described by G. L. Brennan and L. H. Kronenberg in “Automated Bioassay of Interferons in Micro-test Plates”, Biotechniques, June/July, 78, 1983, incorporated herein by reference. Briefly stated the method is as follows: A549 cells are incubated with dilutions of samples or a standard interferon at 37° C. for 24 hours. The incubated cells are then infected with an inoculum of encephalomyocarditis virus. The infected cells are incubated for an additional 24 hours at 37° C. before evaluating for viral cytopathic effect. The viral cytopathic effect is quantified by staining with crystal violet followed by visual scoring of the plates. Results are expressed as IFN-α reference units/mL based on the value obtained for NIH Human Leukocyte IFN standard. TNF-α production was determined by ELISA (Biosource International, Inc., Camarillo, Calif.).
(§4) Adherent cells are obtained and prepared as described in Example 1. The cells are pre-treated as described in Example 1 with either poly(I:C), recombinant IFN-γ, recombinant IFN-α, or receive no pre-treatment. The cells are washed as described in Example 1, then treated as described in Example 1 with either IRM1, IRM2, IRM3, IRM4, IRM5, IRM6, IRM7, IRM8, or IRM9 for 24 hours.
(§5) Cell free supernatants are isolated from all of the cultures and analyzed for Type I IFN or TNF-α.

[2] = tested on: adherent cells from human PBMC; assay: TNF-α production by adherent cells from human PBMC, ELISA of supernatants; format: cell-based
Method: as §1, §2, §3, §4, §5

[3] = IRM1 0.3 μM for 24 hours after pre-treatment with 1-100 U/mL recombinant IFN-α for 24 hours, washed
[4] = IRM1 0.3 μM for 24 hours, no pre-treatment
[5] = IRM1 3.0 μM for 24 hours after pre-treatment with 1-100 U/mL recombinant IFN-α for 24 hours, washed
[6] = IRM1 3.0 μM for 24 hours, no pre-treatment

With Cc1nc2c(N)nc3ccccc3c2n1CC(C)(C)O [IRM1, 4-amino-α,α,2-trimethyl-1H-imidazo[4,5-c]quinoline-1-ethanol] the IFN-α [1, 3] was 3,788 U/mL, the IFN-α [1, 4] was 5 U/mL and the IFN-α [1, 5] was 3,788 U/mL. For the same molecule, the IFN-α [1, 6] was 5 U/mL, the TNF-α [2, 3] was 114 pg/mL and the TNF-α [2, 4] was 437 pg/mL. The TNF-α [2, 5] was 284 pg/mL and the TNF-α [2, 6] was 3295 pg/mL.
